Laboratory results as given in ChEMBL document CHEMBL1147334, “Starfish saponins, part 49. New cytotoxic steroidal glycosides from the starfish Fromia monilis” (J Nat Prod, 1993).

System: Vero
Experiment: Cytotoxicity against african green monkey Vero cells after 24 hrs measured per 5x10^5 cells by neutral red uptake assay
Assay type: cell-based
Settings: chlorocebus sabaeus

CO[C@H]1[C@H](O[C@H]2CC[C@@]3(C)[C@H]([C@H]2O)[C@H](O)C[C@]2(O)[C@@H]3CC[C@]3(C)[C@@H]([C@H](C)CC[C@H](O)C(C)C)C[C@@H](O)[C@H]32)OC[C@@H](O)[C@@H]1O [MONILOSIDE D]
Activity: 3 µg

CO[C@H]1[C@H](O[C@H]2CC[C@]3(C)C4=CC[C@]5(C)[C@@H]([C@H](C)CC[C@H](O)C(C)C)C[C@@H](O)[C@H]5C4=CC[C@H]3C2)OC[C@@H](O)[C@@H]1O [MONILOSIDE A]
Activity: 3 µg

CO[C@@H]1[C@@H](O)[C@H](OCC[C@@H](/C=C/[C@@H](C)[C@H]2[C@@H](O)[C@@H](O)[C@@H]3[C@]2(C)CC[C@@H]2[C@@]4(C)CC[C@H](O)[C@H](O)[C@@H]4[C@@H](O)C[C@]23O)C(C)C)OC[C@H]1O[C@@H]1OC[C@H](O)[C@H](O)[C@H]1O [MONILOSIDE F]
Activity: 10 µg

CO[C@@H]1[C@@H](O)[C@H](O[C@@H]2CO[C@@H](O[C@@H]3CO[C@@H](OCC[C@@H](CC[C@@H](C)[C@H]4[C@@H](O)[C@@H](O)[C@@H]5[C@]4(C)CC[C@@H]4[C@@]6(C)CC[C@H](O)[C@H](O)[C@@H]6[C@@H](O)C[C@]45O)C(C)C)[C@H](O)[C@H]3O)[C@H](O)[C@H]2OC)OC[C@H]1O [MONILOSIDE G]
Activity: 10 µg

CO[C@@H]1[C@@H](O)[C@H](O[C@@H]2CO[C@@H](O[C@@H]3CO[C@@H](OCC[C@@H](/C=C/[C@@H](C)[C@H]4[C@@H](O)[C@@H](O)[C@@H]5[C@]4(C)CC[C@@H]4[C@@]6(C)CC[C@H](O)[C@H](O)[C@@H]6[C@@H](O)C[C@]45O)C(C)C)[C@H](O)[C@H]3O)[C@H](O)[C@H]2OC)OC[C@H]1O
Activity: 10 µg

CO[C@@H]1[C@@H](O)[C@H](OCC[C@@H](CC[C@@H](C)[C@H]2[C@@H](O)[C@@H](O)[C@@H]3[C@]2(C)CC[C@@H]2[C@@]4(C)CC[C@H](O)[C@H](O)[C@@H]4[C@@H](O)C[C@]23O)C(C)C)OC[C@H]1O[C@@H]1OC[C@H](O)[C@H](O)[C@H]1O [MONILOSIDE E]
Activity: 10 µg

CO[C@H]1[C@H](O[C@H]2CC[C@]3(C)C4=CC[C@]5(C)[C@@H]([C@H](C)CC[C@H](O)C(C)C)C[C@@H](O)[C@H]5C4=CC[C@H]3[C@H]2O)OC[C@@H](O)[C@@H]1O [MONILOSIDE B]
Activity: 3 µg

CO[C@@H]1[C@@H](O)[C@H](O[C@@H]2CO[C@@H](O[C@@H]3CO[C@@H](OCC[C@@H](CC[C@@H](C)[C@H]4[C@@H](O)[C@@H](O)[C@@H]5[C@]4(C)CC[C@@H]4[C@@]6(C)CC[C@H](O)[C@H](O)[C@@H]6[C@@H](O)C[C@]45O)C(C)C)[C@H](O)[C@H]3O)[C@H](O)[C@H]2O)OC[C@H]1O [MONILOSIDE I]
Activity: 1 µg

CO[C@H]1[C@H](O[C@H]2CC[C@@]3(C)[C@H]([C@H]2O)[C@H](O)C[C@H]2[C@@H]4[C@H](O)C[C@H]([C@H](C)CC[C@H](O)C(C)C)[C@@]4(C)CC[C@@H]23)OC[C@@H](O)[C@@H]1O [MONILOSIDE C]
Activity: 3 µg
